# In PubChem BioAssay AID1259407 (Chemical Carcinogenesis Research Information System (CCRIS), 2018):
# The source made the active and inactive calls. How the calls were made is not given here.
# System: CCRIS mutagenicity, Ames/micronucleus/aberration tests
# Assay: CCRIS mutagenicity studies
# [1] = Test System: AMES SALMONELLA TYPHIMURIUM, Strain/Indicator: TA98, Metabolic Activation: NONE, Method: STANDARD PLATE
# [2] = Test System: AMES SALMONELLA TYPHIMURIUM, Strain/Indicator: TA98, Metabolic Activation: RAT, LIVER, S-9, AROCLOR 1254, Method: STANDARD PLATE
# [3] = Test System: AMES SALMONELLA TYPHIMURIUM, Strain/Indicator: TA100, Metabolic Activation: NONE, Method: STANDARD PLATE
# [4] = Test System: AMES SALMONELLA TYPHIMURIUM, Strain/Indicator: TA100, Metabolic Activation: RAT, LIVER, S-9, AROCLOR 1254, Method: STANDARD PLATE
# [5] = Test System: AMES SALMONELLA TYPHIMURIUM, Strain/Indicator: TA98, Metabolic Activation: NONE, Method: PREINCUBATION
# [6] = Test System: AMES SALMONELLA TYPHIMURIUM, Strain/Indicator: TA98, Metabolic Activation: RAT, LIVER, S-9, AROCLOR 1254, Method: PREINCUBATION
# [7] = Test System: AMES SALMONELLA TYPHIMURIUM, Strain/Indicator: TA100, Metabolic Activation: NONE, Method: PREINCUBATION
# [8] = Test System: AMES SALMONELLA TYPHIMURIUM, Strain/Indicator: TA100, Metabolic Activation: RAT, LIVER, S-9, AROCLOR 1254, Method: PREINCUBATION
# [9] = Test System: AMES SALMONELLA TYPHIMURIUM, Strain/Indicator: TA1535, Metabolic Activation: NONE, Method: PREINCUBATION
smiles,measurement,setting,value
c1ccc2c(c1)c1cccc3ccc4cccc2c4c31,mutagenic call,"End Point: IN VITRO MICRONUCLEUS, Test System: CHINESE HAMSTER V79 CELLS, Metabolic Activation: S-9",active; positive
same,mutagenic call,"Test System: AMES SALMONELLA TYPHIMURIUM, Strain/Indicator: TA97, Metabolic Activation: NONE, Method: STANDARD PLATE",inactive; negative
same,mutagenic call,"Test System: AMES SALMONELLA TYPHIMURIUM, Strain/Indicator: TA97, Metabolic Activation: RAT, LIVER, S-9, PCB, Method: STANDARD PLATE",active; positive
same,mutagenic call,[1],inactive; negative
same,mutagenic call,[2],active; positive
same,mutagenic call,"Test System: AMES SALMONELLA TYPHIMURIUM, Strain/Indicator: TA98, Metabolic Activation: RAT, LIVER, S-9, PCB, Method: STANDARD PLATE",active; positive
same,mutagenic call,"Test System: AMES SALMONELLA TYPHIMURIUM, Strain/Indicator: TA100, Metabolic Activation: MOUSE, LIVER, MICROSOMES, BENZO[E]PYRENE AND TCDD, Method: STANDARD PLATE",inactive; negative
same,mutagenic call,[3],inactive; negative
same,mutagenic call,[4],active; positive
same,mutagenic call,"Test System: AMES SALMONELLA TYPHIMURIUM, Strain/Indicator: TA100, Metabolic Activation: RAT, LIVER, S-9, PCB, Method: STANDARD PLATE",active; positive
same,mutagenic call,"Test System: E. COLI, Strain/Indicator: WP2 UVRA, Metabolic Activation: HAMSTER, LIVER, S-9, AROCLOR 1254, Method: STANDARD PLATE",inactive; negative
same,mutagenic call,"Test System: E. COLI, Strain/Indicator: WP2 UVRA, Metabolic Activation: HAMSTER, LIVER, S-9, Method: STANDARD PLATE",inactive; negative
same,mutagenic call,"Test System: E. COLI, Strain/Indicator: WP2 UVRA, Metabolic Activation: MOUSE, LIVER, S-9, AROCLOR 1254, Method: STANDARD PLATE",inactive; negative
same,mutagenic call,"Test System: E. COLI, Strain/Indicator: WP2 UVRA, Metabolic Activation: MOUSE, LIVER, S-9, Method: STANDARD PLATE",inactive; negative
same,mutagenic call,"Test System: E. COLI, Strain/Indicator: WP2 UVRA, Metabolic Activation: NONE, Method: STANDARD PLATE",inactive; negative
same,mutagenic call,"Test System: E. COLI, Strain/Indicator: WP2 UVRA, Metabolic Activation: RAT, LIVER, S-9, AROCLOR 1254, Method: STANDARD PLATE",inactive; negative
same,mutagenic call,"Test System: E. COLI, Strain/Indicator: WP2 UVRA, Metabolic Activation: RAT, LIVER, S-9, Method: STANDARD PLATE",inactive; negative
same,mutagenic call,"Test System: MOUSE LYMPHOMA, Strain/Indicator: L5178Y (TK+/TK-), Metabolic Activation: NONE, Method: SUSPENSION/PLATE",inactive; negative
same,mutagenic call,"Test System: MOUSE LYMPHOMA, Strain/Indicator: L5178Y (TK+/TK-), Metabolic Activation: RAT, LIVER, S-9, AROCLOR 1254, Method: SUSPENSION/PLATE",active; positive
same,mutagenic call,"Test System: MOUSE LYMPHOMA, Strain/Indicator: L5178Y (TK+/TK-), Metabolic Activation: RAT, LIVER, S-9, Method: SUSPENSION/PLATE",inactive; negative
same,mutagenic call,"Test System: UDS HUMAN CELLS, Strain/Indicator: THY INCORP (NON-S-PHASE), Metabolic Activation: RAT, LIVER, S-9, 3-METHYLCHOLANTHRENE, Method: LIQUID SCINTILLATION COUNTING",active; positive
O=C1c2c(O)ccc3c2[C@H](c2ccc(O)c4c2[C@H]3[C@H]2O[C@H]2C4=O)[C@H]2O[C@@H]12,mutagenic call,[1],active; positive
same,mutagenic call,[2],active; positive
same,mutagenic call,"Test System: AMES SALMONELLA TYPHIMURIUM, Strain/Indicator: TA98, Method: STANDARD PLATE",active; positive
same,mutagenic call,[3],active; positive
same,mutagenic call,[4],active; positive
same,mutagenic call,"Test System: AMES SALMONELLA TYPHIMURIUM, Strain/Indicator: TA1537, Metabolic Activation: NONE, Method: STANDARD PLATE",active; positive
same,mutagenic call,"Test System: AMES SALMONELLA TYPHIMURIUM, Strain/Indicator: TA1537, Metabolic Activation: RAT, LIVER, S-9, AROCLOR 1254, Method: STANDARD PLATE",active; positive
CC(=O)Nc1ccc2c(ccc3ccccc32)c1,mutagenic call,"Test System: CHINESE HAMSTER OVARY, Strain/Indicator: AS52/6-THIOGUANINE, Metabolic Activation: NONE",inactive; negative
same,mutagenic call,"Test System: CHINESE HAMSTER OVARY, Strain/Indicator: AS52/6-THIOGUANINE, Metabolic Activation: RAT LIVER S-9, 2-ACETYLAMINOFLUORINE",active; positive
CCN(CC)S(=O)(=O)c1ccc(NC(C)=O)cc1,mutagenic call,[5],inactive; negative
same,mutagenic call,[6],inactive; negative
same,mutagenic call,[7],inactive; negative
same,mutagenic call,[8],inactive; negative
Cc1cc(=O)oc2cc(O)cc(O)c12,mutagenic call,"Test System: AMES SALMONELLA TYPHIMURIUM, Strain/Indicator: TA98, Metabolic Activation: HAMSTER, LIVER, S-9, AROCLOR 1254, Method: PREINCUBATION",inactive; negative
same,mutagenic call,[5],inactive; negative
same,mutagenic call,[6],inactive; negative
same,mutagenic call,"Test System: AMES SALMONELLA TYPHIMURIUM, Strain/Indicator: TA100, Metabolic Activation: HAMSTER, LIVER, S-9, AROCLOR 1254, Method: PREINCUBATION",inactive; negative
same,mutagenic call,[7],inactive; negative
same,mutagenic call,[8],inactive; negative
same,mutagenic call,"Test System: AMES SALMONELLA TYPHIMURIUM, Strain/Indicator: TA1535, Metabolic Activation: HAMSTER, LIVER, S-9, AROCLOR 1254, Method: PREINCUBATION",inactive; negative
same,mutagenic call,[9],inactive; negative
same,mutagenic call,"Test System: AMES SALMONELLA TYPHIMURIUM, Strain/Indicator: TA1535, Metabolic Activation: RAT, LIVER, S-9, AROCLOR 1254, Method: PREINCUBATION",inactive; negative
same,mutagenic call,"Test System: AMES SALMONELLA TYPHIMURIUM, Strain/Indicator: TA1537, Metabolic Activation: HAMSTER, LIVER, S-9, AROCLOR 1254, Method: PREINCUBATION",inactive; negative
same,mutagenic call,"Test System: AMES SALMONELLA TYPHIMURIUM, Strain/Indicator: TA1537, Metabolic Activation: NONE, Method: PREINCUBATION",inactive; negative
same,mutagenic call,"Test System: AMES SALMONELLA TYPHIMURIUM, Strain/Indicator: TA1537, Metabolic Activation: RAT, LIVER, S-9, AROCLOR 1254, Method: PREINCUBATION",inactive; negative
CC(Br)C(=O)NCc1ccccc1 (configuration not stated),mutagenic call,"Test System: AMES SALMONELLA TYPHIMURIUM, Strain/Indicator: TA100, Metabolic Activation: MOUSE, LIVER, S-9, AROCLOR 1254, Method: STANDARD PLATE",active; positive
same,mutagenic call,[3],active; positive
O[C@H]1C=Cc2ccc3c(sc4ccccc43)c2[C@@H]1O,mutagenic call,[8],inactive; negative
COC(=O)C1=CCCN(N=O)C1,mutagenic call,[1],active; positive
same,mutagenic call,"Test System: AMES SALMONELLA TYPHIMURIUM, Strain/Indicator: TA98, Metabolic Activation: RAT, LIVER, S-9, Method: STANDARD PLATE",active; positive
same,mutagenic call,[3],active; positive
same,mutagenic call,"Test System: AMES SALMONELLA TYPHIMURIUM, Strain/Indicator: TA100, Metabolic Activation: RAT, LIVER, S-9, Method: STANDARD PLATE",active; positive
CN[C@@H]1[C@@H](O)[C@@H](O[C@@H]2[C@@H](O)[C@H](O[C@H]3O[C@H](CN)[C@@H](O)[C@H](O)[C@H]3O)[C@@H](N)C[C@H]2NC(=O)[C@@H](O)CN)OC[C@]1(C)O,mutagenic call,[5],inactive; negative
same,mutagenic call,[7],inactive; negative
same,mutagenic call,[9],inactive; negative
same,mutagenic call,"Test System: E. COLI, Strain/Indicator: WP2 UVRA, Metabolic Activation: NONE, Method: PREINCUBATION",inactive; negative
